From ChEMBL document CHEMBL1201862, “PubChem BioAssay data set” (2004) come the findings set out here.

Assay in all cases: inhibition of tumour cell growth, NCI panel, 48 h
Test [1] relates to SR.
For test [2], the system named is BT-549.
In test [3] the test system is M14.
In test [4] the test system is HCC 2998.
The subject of test [5] is SW-620.
In test [6] the test system is NCI-H522.
For test [7], the system named is OVCAR-3.
In test [8] the test system is HCT-116.
Test [9] has as its system TK-10.
Test [10] relates to 786-0.
The test system of test [11] is RXF 393.
Test [12] deals with EKVX.
Test [13] has as its system Hs-578T.
Test [14] relates to T47D.
Test [15] relates to OVCAR-8.
Test [16] has as its system SF-268.
For test [17], the system named is PC-3.
For test [18], the system named is NCI-H460.
For test [19], the system named is SF-539.
In test [20] the test system is SN12C.

The structures appear in SMILES notation.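 Method: 48-hour compound exposure of cells in 96-well plates, five concentrations, linear interpolation of endpoints. Here, GI50 denotes the concentration required for 50% inhibition of growth.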 Active and inactive are the calls of the source. Rule as the data show it: active = GI50 up to about 1.1 µM and inactive = higher.

In the case of `COc1ccc(/C=C2\N/C(=N\N=C/C(O)C(O)C(O)C(O)CO)NC2=O)cc1` (stereo not given), the GI50 in [1] was 45.2 µM (inactive); in test [2], 24.6 µM (inactive); in [3], 19.4 µM (inactive); in [4], 11.6 µM (inactive); in test [5] it was 76 µM (inactive); in test [6], 20.3 µM (inactive). Further, the GI50 in [7] is 18.6 µM (inactive); in [8], 53.6 µM (inactive); in test [9], 41.6 µM (inactive); in test [10], 35.5 µM (inactive); in test [11] it was 56.5 µM (inactive); in test [12], > 100 µM (inactive). For the same molecule, the GI50 in [13] was 26.9 µM (inactive); in test [14] it was 12.5 µM (inactive); in [15] it was 32.4 µM (inactive); in [16] it was 22.7 µM (inactive); in [17], 26.2 µM (inactive); in test [18] it was 42.7 µM (inactive). The values for the GI50 in [19] and in test [20] were 19.6 µM (inactive) and 23.9 µM (inactive), respectively.

For the molecule `COc1cc(C2c3cc4c(cc3OC(N3CCNCC3)C2C)OCO4)cc(OC)c1OC` (stereo not given), the GI50 in test [1] is 0.441 µM (active); in test [2], 0.579 µM (active); in [3], 0.873 µM (active); in [4] it was 2.26 µM (inactive); in test [5] it was 0.445 µM (active); in test [6], 0.861 µM (active). The GI50 was 0.204 µM (active) in test [7]; 0.56 µM (active) in test [8]; 20.7 µM (inactive) in [9]; 0.746 µM (active) in test [10]; 0.3 µM (active) in test [11]; 6.38 µM (inactive) in test [12]. Moreover, the GI50 was 0.17 µM (active) in test [13]; 0.979 µM (active) in test [14]; 2.93 µM (inactive) in [15]; 0.836 µM (active) in [16]; 0.456 µM (active) in [17]; 0.94 µM (active) in test [18]. For the same molecule, the GI50 in test [19] was 0.344 µM (active); in test [20], 2.59 µM (inactive).

With `Clc1ccc(Nc2nc(Cl)c3nc[nH]c3n2)cc1Cl`, the GI50 in [1] is 19.2 µM (inactive); in [2] it was 15.6 µM (inactive); in test [3], 36.7 µM (inactive); in [4], 16.9 µM (inactive); in test [5], 38 µM (inactive); in test [6] it was 18.7 µM (inactive). For the same molecule, the GI50 is 19.1 µM (inactive) in test [7]; 29.5 µM (inactive) in test [8]; 32.4 µM (inactive) in [9]; 15.8 µM (inactive) in [10]; 21 µM (inactive) in test [11]; 1.97 µM (inactive) in test [12]. Also, the GI50 in [13] is 22.1 µM (inactive); in [14], 14.2 µM (inactive); in test [15], 35.4 µM (inactive); in test [16] it was 22.1 µM (inactive); in test [17] it was 14.7 µM (inactive); in [18] it was 14.5 µM (inactive). For the same molecule, the GI50 in test [19] was > 10 µM (inactive); in [20] it was 43.8 µM (inactive).

For the molecule `O=C1CSC(c2cc3cc(Br)ccc3nc2Cl)N1c1ccc(Cl)cc1` (stereo not given), the GI50 in [1] was 15.1 µM (inactive); in [2], 26.8 µM (inactive); in [3], 21.1 µM (inactive); in test [4] it was 19.2 µM (inactive); in [5] it was 34.3 µM (inactive); in test [6], 17.8 µM (inactive). For the same molecule, the GI50 in test [7] was 16.7 µM (inactive); in test [8], 23.6 µM (inactive); in test [9], 29.6 µM (inactive); in test [10] it was 35.6 µM (inactive); in [11], 20.8 µM (inactive); in test [12], 27.2 µM (inactive). Besides, the GI50 was 35.9 µM (inactive) in [13]; 21 µM (inactive) in test [14]; 44.1 µM (inactive) in test [15]; 22.2 µM (inactive) in test [16]; 41.2 µM (inactive) in [17]; 16.1 µM (inactive) in [18]. Moreover, the GI50 in test [19] is 17.7 µM (inactive); in test [20], 20.2 µM (inactive).

Consider `O=[N+]([O-])c1ccc2nc(Cl)n[n+]([O-])c2c1`, for which the GI50 in test [1] was 2.2 µM (inactive); in test [2] it was 16.2 µM (inactive); in [3], 14.3 µM (inactive); in test [4], 16.3 µM (inactive); in [5], 12.4 µM (inactive); in test [6] it was 12 µM (inactive). For the same molecule, the GI50 in test [7] was 7.43 µM (inactive); in test [8], 12.7 µM (inactive); in test [9], 16.8 µM (inactive); in test [10], 8.3 µM (inactive); in test [11], 15.1 µM (inactive); in [12], 18.5 µM (inactive). Moreover, the GI50 in test [13] is 37 µM (inactive); in test [14], 16.8 µM (inactive); in test [15], 15.2 µM (inactive); in test [16] it was 14.1 µM (inactive); in test [17] it was 13 µM (inactive); in [18] it was 20.3 µM (inactive). The GI50 in test [19] was 11.7 µM (inactive); in [20], 16.1 µM (inactive).

As to `Cn1cnc([N+](=O)[O-])c1Sc1nc(N)nc2c1ncn2C1OC(CO)C(O)C1O` (stereo not given), the GI50 in test [1] is 1.53 µM (inactive); in [2] it was 8.41 µM (inactive); in test [3] it was 2.28 µM (inactive); in test [4], 2.77 µM (inactive); in test [5], 28.1 µM (inactive); in [6], 9.38 µM (inactive). Moreover, the GI50 is 4.9 µM (inactive) in test [7]; 3.85 µM (inactive) in test [8]; 6.76 µM (inactive) in [9]; 3.14 µM (inactive) in test [10]; 3.78 µM (inactive) in test [11]; 8.39 µM (inactive) in test [12]. Further, the GI50 was 1.97 µM (inactive) in test [13]; 5.38 µM (inactive) in [14]; 2.51 µM (inactive) in [15]; 4.44 µM (inactive) in test [16]; 1.52 µM (inactive) in [17]; 1.69 µM (inactive) in test [18]. Moreover, the figures for the GI50 in test [19] and in test [20] were 2.9 µM (inactive) and 7.11 µM (inactive), respectively.

As for `CNC(=O)Nc1ccccc1`, the GI50 in test [1], in test [2], in test [3], in test [4], in test [5] and in test [6] was > 100 µM (inactive) throughout. The GI50 in test [7], in [8], in [9], in test [10], in test [11] and in test [12] was > 100 µM (inactive) throughout. Also, the GI50 in test [13], in test [14], in test [15], in test [16], in test [17] and in test [18] was > 100 µM (inactive) each time. Further, the GI50 in test [19] and in test [20] was > 100 µM (inactive) throughout.
